Data on 22 compounds can be found in patent publication US7396842B2, “Five-membered cyclic compounds” (Dianippon Sumitomo Pharma Co., Ltd., priority 2002, dated 2008).

T1 sequence (A0A8I6A822 27-587): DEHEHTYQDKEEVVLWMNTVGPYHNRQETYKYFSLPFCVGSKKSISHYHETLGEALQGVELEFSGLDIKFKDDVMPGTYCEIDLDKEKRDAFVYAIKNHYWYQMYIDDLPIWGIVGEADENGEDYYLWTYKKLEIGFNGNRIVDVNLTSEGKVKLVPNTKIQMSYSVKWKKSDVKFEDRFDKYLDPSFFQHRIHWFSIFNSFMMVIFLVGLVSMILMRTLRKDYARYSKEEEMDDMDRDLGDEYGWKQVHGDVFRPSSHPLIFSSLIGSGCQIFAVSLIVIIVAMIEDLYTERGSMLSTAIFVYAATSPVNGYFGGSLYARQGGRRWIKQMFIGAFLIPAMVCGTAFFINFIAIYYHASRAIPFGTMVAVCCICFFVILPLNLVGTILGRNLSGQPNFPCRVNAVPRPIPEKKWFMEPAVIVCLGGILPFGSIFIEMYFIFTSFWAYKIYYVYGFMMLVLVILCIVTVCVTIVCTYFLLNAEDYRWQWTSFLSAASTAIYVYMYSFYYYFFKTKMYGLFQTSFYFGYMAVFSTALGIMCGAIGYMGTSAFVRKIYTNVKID

One test has as its target T1, SMBS on rat lung membranes (Rattus norvegicus, UniProt A0A8I6A822).
T1 construct: from tissue; host or cells: rat lung membranes (SD male rats)
Briefly: Receptor binding of the compound in rat lung membranes ([125I]-iodo-cyanopindolol ligand binding assay; Experiments 1 and 4). Particulars: Table 42; concentration tested 30 μM; rat lung membranes; Experiment 4; read-out: Binding Activity (30 μM). The procedure:
Evaluation Test on Receptor Binding of the Compound in Rat Lung Membranes:
This experiment was carried out according to the method disclosed in Sugasawa et al., (Sugasawa, T. et al., J. Biol. Chem., 272, 21244-21252(1997)).
Preparation of Rat Lung Membranes
The air tube and blood vessels were removed from the lung excised from SD male rats (7-weeks old when used, purchased from Charles River Japan, Inc.), and the lung was chopped, and washed with ice-cold tris-saline buffer (10 mM Tris-HCl, 154 mM sodium chloride, pH 7.4). The lung was homogenized by PHYSCOTRON (maximum speed: 1 minute) in a buffer for homogenization (tris-saline buffer containing 1 mM ethylenediaminetetraacetate (EDTA), 1 mM 4-(2-aminoethyl)-benzenesulfonyl fluoride (AEBSF), 5 μg/ml aprotinin, 5 μg/ml leupeptin) under ice-cooling. The mixture was centrifuged at a low speed (1500×g, 20 minutes, 4° C.), and the supernatant was super-centrifuged (100000×g, 20 minutes, 4° C.). The pellets thus obtained were suspended in tris-saline buffer, and kept at −80° C. The concentration of protein was measured by a Protein Assay Kit manufactured by Bio-Rad using bovine serum albumin (BSA) as standard.
To each well of a protein-non-adsorbent round-bottom 96-well assay plate (purchased from IWAKI GLASS CO., LTD.) was added tris-saline buffer (200 μl) containing 1 nM [^125I]-iodo-cyanopindolol (purchased from Amarsham), 10 μM serotonin, 20 μM dl-propranol, 10 μM phentoramine, 1.1 mM ascorbic acid and 100 μg lung membranes, and the mixture was mixed well by pipetting, and the plate was incubated at 37° C. for 30 minutes. Test compounds were dissolved in 100% dimethylsulfoxide, and added to the plate in an amount of 2 μl (final concentration of DMSO: 1%). In order to obtain non-specific binding, L-threo-3-(3,4-dihydroxyphenyl)-N-[3-(4-fluorophenyl)propyl]-serinepyrrolidinamide was added at a final concentration of 100 μM instead of test compound. During this period, 0.3% polyethyleneimine (PEI)/tris-saline buffer (100 μl) was added to a multiscreen plate (96-well B-glassfiber, milipore Cat. No. MAFB NOB10) and the plate was incubated for more than 30 minutes. The plate was washed by vacuum filtration (by adding ice-cold tris-saline buffer (200 μl) and then vacuum filtration), and the reaction solution on the 96-well assay plate was washed by vacuum filtration onto the multiscreen plate for four times. The B-glassfiber paper filter at the bottom of the multiscreen plate was punched out, and the γ-ray amount of [^125I]-iodo-cyanopindolol being trapped onto the paper filter was measured as binding amount. The binding amount in the presence of DMSO (final concentration: 1%) was regarded as total binding, and the binding in the presence of L-threo-3-(3,4-dihydroxyphenyl) -N-[3-(4-fluorophenyl)-propyl]serinepyrrolidinamide was regarded as non-specific binding. The value which is calculated by subtracting non-specific binding from total binding is specific binding. The binding activity of the compound can be calculated by the following equation, and expressed in a ratio of inhibiting the specific binding of [^125I]-iodo-cyanopindorol to SMBS on rat lung membranes.
In the same manner to in Experiment 1, the receptor binding assay was carried out on the present compounds by using the rat lung membranes.
Turning to `CCNC(=O)NCCCCCn1c(-c2ccc(N3CCOCC3)cc2)cs/c1=N\c1ccc(F)cc1` [Example 295], the inhibition at 30 µM turned out to be 18%.
Same read-out and setting: for `O=C(NCCCn1c(-c2ccc(N3CCOCC3)cc2)cs/c1=N\c1ccc(F)cc1)Nc1ccc(F)cc1` [Example 288] the value was 34%; for `COc1ccc(NC(=O)NCCCn2c(-c3ccc(N4CCOCC4)cc3)cs/c2=N\c2ccc(F)cc2)cc1` [Example 291], 68%; for `O=C(NCCCn1c(-c2ccc(N3CCOCC3)cc2)csc1=Nc1ccc(F)cc1)c1ccccc1` [Example 222, N-{3-[2-[(4-Fluorophenyl)imino]-4-[4-(morpholino)phenyl]thiazol-3(2H)-yl]propyl}benzamide], 86%.

The same test, now with this note: Table 43; concentration tested 30 μM; rat lung membranes; Experiment 4; read-out: Binding Activity (30 μM).
For the compound `COCCOCCNCCCn1c(-c2ccc(F)cc2)cs/c1=N\c1ccc(Cl)cc1OC` [Example 316], the inhibition at 30 µM is 102%.
As to `COCC(=O)NCCCn1c(-c2ccc(OC(F)(F)F)cc2)cs/c1=N\Cc1ccc(OC)cc1OC` [Example 383, N-{3-[2-[(2,4-Dimethoxybenzyl)imino]-4-[4-(trifluoromethoxy)phenyl]-1,3-thiazol-3(2H)-yl]propyl}-2-methoxyacetamide], the inhibition at 30 µM is 84%.
Regarding `CN(C)C(=O)NCCCn1c(-c2ccc3c(c2)OCO3)cs/c1=N\c1ccc(OC(F)(F)F)cc1` [Example 309], the inhibition at 30 µM is 100%.
Turning to `CCNC(=O)NCCCn1c(COCc2ccccc2)cs/c1=N\c1ccc(OC)cn1` [Example 307], the inhibition at 30 µM came to 48%.
Take `O=C(CNc1ccccc1)NCCCn1c(-c2ccc(N3CCOCC3)cc2)cs/c1=N\c1ccc(F)cc1` [Example 359]: the inhibition at 30 µM amounted to 82%.
On the same count and under the same terms, for `CCNC(=S)NCCCn1c(-c2ccc(N3CCOCC3)cc2)cs/c1=N\c1ccc(F)cc1` [Example 312] the value was 112%.

Staying with this test, now noted: Table 44; concentration tested 30 μM; rat lung membranes; Experiment 4; read-out: Binding Activity (30 μM).
On to `O=C(O)CNCCCn1c(-c2ccc(OC(F)(F)F)cc2)cs/c1=N\Cc1ccc(Cl)cc1` [Example 427, N-{3-[2-[(4-Chlorobenzyl)imino]-4-[4-(trifluoromethoxy)phenyl]-1,3-thiazol-3(2H)-yl]propyl}glycine], for which the inhibition at 30 µM came to 100%.
Still for that read-out and setting: under `COc1ccc(C(=O)/N=c2\scc(C(=O)Nc3ccc(Cl)cc3)n2CCCN)c(OC)c1` [Example 431, 3-(3-Aminopropyl)-N-(4-chlorophenyl)-2-[(2,4-dimethoxybenzoyl)imino]-2,3-dihydro-1,3-thiazol-4-carboxamide] stands 95%.
Regarding `CCNC(=O)NCCCn1c(-c2ccc(OC)cc2)cs/c1=N\CCc1ccncc1` [Example 398], the inhibition at 30 µM was determined as 37%.
On the same count and under the same terms, under `O=C(CNCCCn1c(-c2ccc(OC(F)(F)F)cc2)cs/c1=N\Cc1ccc(Cl)cc1)NCCO` [Example 423] stands 113%.
Consider `O=C(NCCCn1c(-c2ccc(OC(F)(F)F)cc2)cs/c1=N\Cc1ccc(Cl)cc1)Nc1ccc(F)cc1` [Example 393], for which the inhibition at 30 µM is 80%.
For `COc1ccc(C(=O)/N=c2\scc(C(=O)N3CCc4ccccc4C3)n2CCCN)c(OC)c1` [Example 432], the inhibition at 30 µM was determined as 42%.

Still in this test, the particulars now being: ratio of inhibiting the specific binding of [125I]-iodo-cyanopindolol; test concentration 30 μM; rat lung membranes; read-out: Binding Activity (30 μM).
Regarding `CCNC(=O)NCCCn1c(-c2ccc(F)cc2)cs/c1=N\C(=O)c1ccc(Cl)cc1OC` [Example 496], the inhibition at 30 µM worked out at 80%.
The same measure, in the same setting: under `COc1ccc(C(=O)/N=c2\scc(-c3ccc(OC(F)(F)F)cc3)n2CCCNC(=N)N2CCCCC2)c(OC)c1` [Example 535] stands 108%; under `COc1ccc(C(=O)/N=c2\scc(-c3ccc(OC(F)(F)F)cc3)n2CCCNC(=O)CN(C)C)c(OC)c1` [Example 482], 85%.
On to `COc1ccc(C(=O)/N=c2\scc(-c3ccc(OC(F)(F)F)cc3)n2CCCNCC(=O)O)c(OC)c1` [Example 531], for which the inhibition at 30 µM came out at 32%.
Still for that read-out and setting: for `COc1ccc(C(=O)/N=c2\scc(-c3ccc(OC(F)(F)F)cc3)n2CCCNC(=O)N(C)C)c(OC)c1` [Example 508] the value was 102%.
Take `CCOC(=O)CCNCCCn1c(-c2ccc(OC(F)(F)F)cc2)cs/c1=N\C(=O)c1ccc(OC)cc1OC` [Example 520]: the inhibition at 30 µM is 99%.
